Data as given in patent US20040138104A1, “Peptides” (priority 2003, published 2004).
Read-outs that look alike come from different tables or passages of the source.

What was measured:
YopH = YopH (Yersinia pestis, UniProt O68720); experiment: biochemical
PTB1B = target: T1, PTB1B (Homo sapiens, UniProt P18031); format: biochemical; conditions: read-out: IC50 Values in μM Against Various Enzymes: PTB1B
T1 sequence (P18031 1-435): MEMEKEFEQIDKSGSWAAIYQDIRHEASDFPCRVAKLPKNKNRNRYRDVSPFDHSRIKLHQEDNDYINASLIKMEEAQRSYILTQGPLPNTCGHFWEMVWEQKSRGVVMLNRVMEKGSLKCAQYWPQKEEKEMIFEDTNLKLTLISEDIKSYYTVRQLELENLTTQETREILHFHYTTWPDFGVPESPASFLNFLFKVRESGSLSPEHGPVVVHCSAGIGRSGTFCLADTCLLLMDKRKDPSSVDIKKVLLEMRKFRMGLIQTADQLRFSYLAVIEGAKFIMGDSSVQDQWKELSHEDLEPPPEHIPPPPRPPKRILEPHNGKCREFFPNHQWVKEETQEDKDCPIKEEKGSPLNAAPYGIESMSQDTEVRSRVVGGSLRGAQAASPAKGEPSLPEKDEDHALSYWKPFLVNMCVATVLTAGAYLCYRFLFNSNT

[1] = read-out: IC50 Values in μM Against Various Enzymes: YopH

YopH, sequence (O68720 1-468): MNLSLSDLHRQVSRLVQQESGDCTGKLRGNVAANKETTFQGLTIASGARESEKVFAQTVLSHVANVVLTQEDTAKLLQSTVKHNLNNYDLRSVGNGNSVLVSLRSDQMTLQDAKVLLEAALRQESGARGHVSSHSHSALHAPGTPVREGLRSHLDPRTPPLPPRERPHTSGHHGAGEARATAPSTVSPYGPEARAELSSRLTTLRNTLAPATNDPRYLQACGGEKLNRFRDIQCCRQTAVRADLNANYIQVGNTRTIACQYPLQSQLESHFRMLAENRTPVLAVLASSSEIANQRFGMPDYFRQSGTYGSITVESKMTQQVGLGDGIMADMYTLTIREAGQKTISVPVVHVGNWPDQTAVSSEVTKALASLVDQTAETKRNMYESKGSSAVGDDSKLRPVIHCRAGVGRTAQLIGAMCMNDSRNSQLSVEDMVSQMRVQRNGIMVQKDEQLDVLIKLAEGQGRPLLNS

Structure (SMILES)	IC50 (YopH; [1])	IC50 (PTB1B)	IC50 (YopH)
CC(C)C[C@H](NC(=O)[C@H](Cc1ccc(OCC(=O)O)cc1)NC(=O)[C@H](CCC(=O)OCc1ccccc1)NC(=O)OCC1c2ccccc2-c2ccccc21)C(N)=O [TB 26]	2.8 ± 1.1 µM	4.6 ± 2 µM	
CC(C)C[C@H](NC(=O)[C@H](Cc1ccc(OCC(=O)O)c(OCC(=O)O)c1)NC(=O)[C@H](CCC(=O)OCc1ccccc1)NC(=O)OCC1c2ccccc2-c2ccccc21)C(N)=O [TB 29]	19.4 ± 3.3 µM	19.4 ± 3.6 µM	
CC(C)C[C@H](NC(=O)[C@H](Cc1ccc(C(F)(C(=O)O)C(=O)O)cc1)NC(=O)[C@H](CCC(=O)OCc1ccccc1)NC(=O)OCC1c2ccccc2-c2ccccc21)C(N)=O [TB 34]			3 ± 0.7 µM
CC(C)C[C@H](NC(=O)[C@H](Cc1ccc(OCC(=O)O)cc1)NC(=O)[C@H](CCC(=O)OCc1ccccc1)NC(=O)OCc1ccccc1)C(N)=O [TB 39]	119 ± 14 µM	72 ± 14 µM	
CC(C)C[C@H](NC(=O)[C@H](Cc1ccc(OCC(=O)O)cc1)NC(=O)[C@H](CCC(=O)OCc1ccccc1)NC(=O)OCCc1ccccc1)C(N)=O [TB 40]			80 ± 8.5 µM
